The values that follow come from patent US20150284344A1, “Substituted [1,2,4]triazole Compounds” (BASF SE, priority 2012, published 2015).

What all share (assay type): cell-based
Assay [1] deals with Botrytis cinerea. In words: Microtiterplate test against grey mold Botrytis cinerea (Botrci), M1 / C1. Particulars: comparison test C1, control = 100%.
Assay [2] deals with Pyricularia oryzae. Particulars: comparison test C2, control = 100%.
Assay [3] deals with Leptosphaeria nodorum. In words: Microtiterplate test against wheat leaf spots caused by Leptosphaeria nodorum (Leptno), C3. Conditions: comparison test C3, control = 100%.
Assay [4] has as its system Septoria tritici. The assay is described as follows: Microtiterplate test against leaf blotch on wheat caused by Septoria tritici (Septtr), M3 / C4. Particulars: comparison test C4, control = 100%.

`Cc1cc(Oc2ccc(Cl)cc2)ccc1C(C)(O)Cn1cncn1` (stereo not drawn) [Compound I-4, 2-[4-(4-chlorophenoxy)-2-methyl-phenyl]-1-(1,2,4-triazol-1-yl)propan-2-ol]: the “Growth (%) at 31 ppm Botrci” value in assay [1] was determined as 0%. For the same compound, in assay [2], the “Growth (%) at 31 ppm Pyrior” value worked out at 0%. For the same compound, the “Growth (%) at 2 ppm Leptno” value in assay [3] worked out at 0%. Also, in assay [4], the “Growth (%) at 2 ppm Septtr” value was determined as 0%.

Turning to `Cc1cc(Oc2ccc(Cl)cc2)ccc1C(O)(Cn1cncn1)C(F)(F)F` (stereo not drawn) [Compound I-5, 2-[4-(4-chlorophenoxy)-2-methyl-phenyl]-1,1,1-trifluoro-3-(1,2,4-triazol-1-yl)propan-2-ol], the “Growth (%) at 31 ppm Botrci” value in assay [1] worked out at 0%. In assay [2], the “Growth (%) at 31 ppm Pyrior” value stood at 0%. The “Growth (%) at 2 ppm Leptno” value in assay [3] is 1%. For the same compound, the “Growth (%) at 2 ppm Septtr” value in assay [4] is 2%.

As for `Cc1cc(Oc2ccc(Cl)cc2)ccc1C(O)(CF)Cn1cncn1` (stereo not drawn) [EP 113 640 A2, compound 53, Table I, reference compound], the “Growth (%) at 31 ppm Botrci” value in assay [1] turned out to be 63%. For the same compound, the “Growth (%) at 31 ppm Pyrior” value in assay [2] came out at 47%. Moreover, in assay [3], the “Growth (%) at 2 ppm Leptno” value was determined as 65%. Further, in assay [4], the “Growth (%) at 2 ppm Septtr” value was 40%.
